According to patent publication US12398154B2, “Azaquinazoline pan-KRas inhibitors” (Mirati Therapeutics, Inc., priority 2020, dated 2025):

Experiments:
KRas G12D = KRas G12D (Homo sapiens, UniProt P01116, G12D); assay: biochemical;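 note: TR-FRET displacement binding assay on KRas, read after a one-hour incubation at room temperature, IC50 fitted from percent-of-control values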
Experimental: (§2) The ability of a compound to bind to KRas was measured using a TR-FRET displacement assay. […] After a 60-minute incubation at room temperature, the reaction was measured using a BMG LABTECH CLARIO star Plus via TR-FRET. […] The POC values were fit to a 4-parameter IC50 equation and the IC50 value reported.

KRas G12R = KRas G12R (Homo sapiens, UniProt P01116, G12R); assay: biochemical;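 note: TR-FRET displacement assay of compound binding to KRas, read after one hour at room temperature, potency from a four-parameter fit of percent-of-control values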
Experimental: as §2

KRas G12V = KRas G12V (Homo sapiens, UniProt P01116, G12V); assay: biochemical;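 note: KRas binding measured by TR-FRET displacement at room temperature, IC50 fitted from percent of control values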
Experimental: as §2

[1] = test system: phospho-ERK in NCI-H358 (G12C) cells; assay: Inhibition of KRas-mediated phosphorylation of ERK (in-cell western); format: cell-based; details: Homo sapiens, 3 hours compound, phospho-ERK normalized to GAPDH
Method in brief: (§1)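 After a 3-hour incubation with diluted compound in 0.5% DMSO, cells are fixed, permeabilized and stained overnight at 4° C for phosphorylated ERK and GAPDH.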

[2] = test system: phospho-ERK in AsPC-1 (G12D) cells; assay: as above; format: cell-based; details: Homo sapiens, ASPC1, 3 h, 3 hours compound, phospho-ERK normalized to GAPDH
Method in brief: as §1

[3] = test system: phospho-ERK in NCI-H727 (G12V) cells; assay: as above; format: cell-based; details: Homo sapiens, NCI-H727, 3 h, 3 hours compound, phospho-ERK normalized to GAPDH
Method in brief: as §1

[4] = test system: phospho-ERK in A549 (G12S) cells; assay: as above; format: cell-based; details: Homo sapiens, 3 hours compound, phospho-ERK normalized to GAPDH
Method in brief: as §1

[5] = test system: phospho-ERK in HCT116 (G13D) cells; assay: as above; format: cell-based; details: Homo sapiens, HCT-116, 3 hours compound, phospho-ERK normalized to GAPDH
Method in brief: as §1

[6] = test system: phospho-ERK in PSN-1 (G12R) cells; assay: as above; format: cell-based; details: Homo sapiens, PSN1, 3 hours compound, phospho-ERK normalized to GAPDH
Method in brief: as §1

[7] = test system: phospho-ERK in NCI-H460 (Q61H) cells; assay: as above; format: cell-based; details: Homo sapiens, NCI-H460, 3 h, 3 hours compound, phospho-ERK normalized to GAPDH
Method in brief: as §1

[8] = test system: phospho-ERK in MKN1 (WTdep) cells; assay: as above; format: cell-based; details: Homo sapiens, MKN-1, 3 hours compound, phospho-ERK normalized to GAPDH
Method in brief: as §1

Chain of KRas G12D (P01116 1-169 isoform P01116-2 G12D): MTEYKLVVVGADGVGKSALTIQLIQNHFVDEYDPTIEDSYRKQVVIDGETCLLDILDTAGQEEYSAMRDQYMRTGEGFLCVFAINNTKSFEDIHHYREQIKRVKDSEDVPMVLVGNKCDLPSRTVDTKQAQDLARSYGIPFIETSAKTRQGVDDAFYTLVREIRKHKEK
Chain of KRas G12R (P01116 1-169 isoform P01116-2 G12R): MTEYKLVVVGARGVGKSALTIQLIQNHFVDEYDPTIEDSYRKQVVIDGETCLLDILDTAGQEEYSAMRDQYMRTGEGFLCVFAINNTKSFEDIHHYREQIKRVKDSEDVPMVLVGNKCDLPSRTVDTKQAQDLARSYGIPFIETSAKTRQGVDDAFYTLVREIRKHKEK
Chain of KRas G12V (P01116 1-169 isoform P01116-2 G12V): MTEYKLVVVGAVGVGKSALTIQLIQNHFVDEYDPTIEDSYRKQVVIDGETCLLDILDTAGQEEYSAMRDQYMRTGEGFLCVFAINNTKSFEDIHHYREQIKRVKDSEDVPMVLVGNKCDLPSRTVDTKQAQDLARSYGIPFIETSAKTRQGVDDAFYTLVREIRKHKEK

| SMILES | IC50 (KRas G12D) [nM] | IC50 (KRas G12R) [nM] | IC50 (KRas G12V) [nM] | IC50 [1] [nM] | IC50 [2] [nM] | IC50 [3] [nM] | IC50 [4] [nM] | IC50 [5] [nM] | IC50 [6] [nM] | IC50 [7] [nM] | IC50 [8] [nM] |
| --- | --- | --- | --- | --- | --- | --- | --- | --- | --- | --- | --- |
| CCc1c(F)ccc2cc(O)cc(-c3ncc4c(N5CCCC(c6ncn[nH]6)C5)nc(OC[C@@]56CCCN5C[C@H](F)C6)nc4c3F)c12 (stereo partly drawn) [Example 145, 4-(4-(3-(1H-1,2,4-triazol-5-yl)piperidin-1-yl)-8-fluoro-2-(((2R,7aS)-2-fluorohexahydro-1H-pyrrolizin-7a-yl)methoxy)pyrido[4,3-d]pyrimidin-7-yl)-5-ethyl-6-fluoronaphthalen-2-ol] | 9 | 3 | 6 | 379 | ≥ 10000 | ≥ 10000 | ≥ 10000 | ≥ 10000 | ≥ 10000 | 847 | 258 |
| CCc1c(F)ccc2cc(O)cc(-c3ncc4c(N5CCCC(C(N)=O)C5)nc(OC[C@@]56CCCN5C[C@H](F)C6)nc4c3F)c12 (stereo partly drawn) [Example 147] | 4 | 3 | 3 | 79 | ≥ 10000 | ≥ 10000 | 1950 | ≥ 10000 | ≥ 10000 | 383 | 65 |
| CCc1c(F)ccc2cc(O)cc(-c3ncc4c(Nc5ccon5)nc(OC[C@@]56CCCN5C[C@H](F)C6)nc4c3F)c12 [Example 152, 5-ethyl-6-fluoro-4-(8-fluoro-2-(((2R,7aS)-2-fluorohexahydro-1H-pyrrolizin-7a-yl)methoxy)-4-(isoxazol-3-ylamino)pyrido[4,3-d]pyrimidin-7-yl)naphthalen-2-ol] | 175 | 10 | 8 | ≥ 10000 | ≥ 10000 | ≥ 10000 | ≥ 10000 | ≥ 10000 | ≥ 10000 | ≥ 10000 | 6290 |
| CCc1c(F)ccc2cc(O)cc(-c3ncc4c(N5CCN(c6ncccc6C#N)CC5)nc(OC[C@@]56CCCN5C[C@H](F)C6)nc4c3F)c12 [Example 155] | 118 | 3 | 4 | 329 | 1720 | 2670 | ≥ 10000 | ≥ 10000 | ≥ 10000 | 399 | 196 |
| CCc1c(F)ccc2cc(O)cc(-c3ncc4c(NCCc5c[nH]c6ncccc56)nc(OC[C@@]56CCCN5C[C@H](F)C6)nc4c3F)c12 [Example 157, 4-(4-((2-(1H-pyrrolo[2,3-b]pyridin-3-yl)ethyl)amino)-8-fluoro-2-(((2R,7aS)-2-fluorohexahydro-1H-pyrrolizin-7a-yl)methoxy)pyrido[4,3-d]pyrimidin-7-yl)-5-ethyl-6-fluoronaphthalen-2-ol] | 12 | ≤ 2 | ≤ 2 | 31 | 751 | 4720 | 448 | 893 | ≥ 10000 | 585 | 31 |
| CCc1c(F)ccc2cc(O)cc(-c3ncc4c(NCc5cc[nH]n5)nc(OC[C@@]56CCCN5C[C@H](F)C6)nc4c3F)c12 [Example 159, 4-(4-(((1H-pyrazol-3-yl)methyl)amino)-8-fluoro-2-(((2R,7aS)-2-fluorohexahydro-1H-pyrrolizin-7a-yl)methoxy)pyrido[4,3-d]pyrimidin-7-yl)-5-ethyl-6-fluoronaphthalen-2-ol] | 39 | 5 | 3 | 139 | ≥ 10000 | 2000 | 4070 | 2110 | ≥ 10000 | 1510 | 133 |
